This note sets out measurements from US12239643B2, “Therapeutic agent for inflammatory diseases, autoimmune diseases, fibrotic diseases, and cancer diseases” (MEIJI SEIKA PHARMA CO., LTD., priority 2018, dated 2025).

Read-outs that look alike come from different tables or passages of the source. Bounds are passed on as bounds.

Series [1] deals with oxazolone-induced auricle edema, BALB/c mice. Briefly: Hapten repeated application mouse chronic dermatitis model (oral, topical). It is filed as in vivo. The conditions noted are these: for Mouse Chronic Dermatitis Model (Test Example 8), Oral: edema suppression rate: 0.3 to 10 mg/kg twice a day for 10 days; for Mouse Chronic Dermatitis Model (Test Example 8), Topical: edema suppression rate: 20 μL of 0.3 to 3% solution once or twice a day for 10 days. Put shortly: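 Female BALB/c mice aged 7–8 weeks were sensitised abdominally with 3% oxazolone, then challenged on both ears with 1% oxazolone. From week 1, test compound was given for 10 days orally at 0.3–10 mg/kg twice daily in 0.5% MC, or topically at 0.3–3% once or twice daily. Ear-thickness change measured by dial gauge gave edema suppression versus vehicle control.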

Series [2] is described as follows: Hepatic metabolic stability (rat liver microsome method). It is filed as in vitro ADME. To be noted: rat liver microsomes 0.5 mg/mL, test substance 1 μM, NADPH 1 mM, 37° C., 30 minutes. Put shortly: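 Scored by % parent left after 30 min (30 min/0 min ×100, LC-MS), banded A ≥75%, B 60–<75%, C 45–<60%, D <45%. Incubation: 1 μM compound, 0.5 mg/mL rat microsomes, pH 7.4 phosphate buffer, 37° C, 5 min preincubation, NADPH 1 mM started, acetonitrile quench.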

The next series deals with TNFα. Nature of the series: Cytokine suppression using human peripheral blood mononuclear cells: TNFα. It is filed as cell-based. To be noted: read-out: TNFα Inhibitory Activity, Human PBMC (Test Example 4). As to the method:
First, peripheral blood mononuclear cells (PBMC) were separated from whole blood by specific gravity centrifugation. Then, the isolated peripheral blood mononuclear cells were added to RPMI-1640 medium (containing 10% fetal bovine serum, penicillin, streptomycin, L-glutamine, and 2-mercaptoethanol), and cultured in a 96-well plate at 37° C. under 5% CO2 for 0 to 1 hour. The test compound dissolved in dimethyl sulfoxide was added to each well, followed by further culture at 37° C. under 5% CO2 for 1 hour. A medium containing only dimethyl sulfoxide instead of the test compound was added to the control well. To each well, lipopolysaccharide (final concentration 1 ng/mL) as a TNFα production stimulant and an IL-23 production stimulant, or concanavalin A (final concentration 20 μg/mL) as an IL-17A production stimulant was added, followed by culture at 37° C. under 5% CO2. In addition, as IL-4 production stimulus, IL-5 production stimulus, and IL-13 production stimulus, PBMC was seeded on a 96-well plate previously coated with a CD3 antibody (final concentration 3 μg/mL), and a CD28 antibody (final concentration 5 ng/mL) was added. The culture was carried out for about 18 hours for the evaluation of the amounts of TNFα and IL-23, and about 48 hours for the evaluation of the amounts of IL-17A, IL-4, IL-5, and IL-13. After collecting the culture supernatant after culturing, the amount of each cytokine was measured by the sandwich ELISA method in the same manner as in Test Example 3, and the cytokine production suppression rate (inhibition rate) and the cytokine inhibitory activity (concentration for the inhibition rate of 50%) of each test compound were calculated.
The measurement results obtained by measuring the TNFα inhibitory activity and IL-5 inhibitory activity (50% inhibitory concentration) of the test compounds by the above method were evaluated in accordance with the following evaluated basis; A: less than 10 nM, B: 10 nM or more and less than 100 nM, and C: 100 nM or more. In addition, the measurement results obtained by measuring the IL-17A inhibitory activity, IL-23 inhibitory activity, IL-4 inhibitory activity, and IL-13 inhibitory activity (50% inhibitory concentration) of the test compounds were evaluated in accordance with the following evaluated basis; A: less than 500 nM, B: 500 nM or more and less than 5000 nM, and C: 5000 nM or more.

[3] abbreviates: human PBMC, lipopolysaccharide 1 ng/mL.

Consider `CC(O)C(F)(F)Oc1ccc(-c2nccs2)c2oc(N3CC4CC(C3)N4)nc12` (single isomer, unassigned) [Example 252, 1-((2-(3,6-Diazabicyclo[3.1.1]heptan-3-yl)-7-(thiazol-2-yl)benzo[d]oxazol-4-yl)oxy)-1,1-difluoropropan-2-ol], for which, in series [1], the “Mouse Chronic Dermatitis Model (Test Example 8), Oral: edema suppression rate” value is “A (A: 70% or more)” and the “Mouse Chronic Dermatitis Model (Test Example 8), Topical: edema suppression rate” value was “A (A: 100% or more)”. Further, the “Residual ratio (% remaining for 30-minute reaction)” value in series [2] was “A (A: a % remaining rate of 75% or more)”. For the same compound, the IC50 in the series with TNFα (setting [3]) was below 10 nM.
`FC(F)(F)Oc1ccc(-c2nccs2)c2oc(N3CC4CC(C3)N4)nc12` [Example 29, 2-(3,6-Diazabicyclo[3.1.1]heptan-3-yl)-7-(thiazol-2-yl)-4-(trifluoromethoxy)benzo[d]oxazole]: in series [1], the “Mouse Chronic Dermatitis Model (Test Example 8), Oral: edema suppression rate” value is listed as “A (A: 70% or more)” and the “Mouse Chronic Dermatitis Model (Test Example 8), Topical: edema suppression rate” value is reported as “A (A: 100% or more)”. Further, the “Residual ratio (% remaining for 30-minute reaction)” value in series [2] was “B (B: 60% or more and less than 75%)”.
For `CC(C)(O)C(F)(F)Oc1ccc(-c2nccs2)c2oc(N3CC4CC(C3)N4)nc12` [Example 248, 1-((2-(3,6-Diazabicyclo[3.1.1]heptan-3-yl)-7-(thiazol-2-yl)benzo[d]oxazol-4-yl)oxy)-1,1-difluoro-2-methylpropan-2-ol], in series [1], the “Mouse Chronic Dermatitis Model (Test Example 8), Oral: edema suppression rate” value is listed as “A (A: 70% or more)” and the “Mouse Chronic Dermatitis Model (Test Example 8), Topical: edema suppression rate” value is “A (A: 100% or more)”. In addition, the “Residual ratio (% remaining for 30-minute reaction)” value in series [2] is recorded as “A (A: a % remaining rate of 75% or more)”. In the series on TNFα (setting [3]), the IC50 is below 10 nM.
Take `CCOc1cc([C@@H](CS(C)(=O)=O)N2C(=O)c3cccc(NC(C)=O)c3C2=O)ccc1OC` [apremilast, reference compound]: the “Mouse Chronic Dermatitis Model (Test Example 8), Oral: edema suppression rate” value in series [1] was “B (B: 40% or more and less than 70%)”. The IC50 in the series with TNFα (Homo sapiens, PBMC) is 10 to 100 nM.
